{"source": "patent US20030219712A1", "about": "“Addition of glycolysis inhibitor to a pathogen reduction and storage solution” (priority 2002, published 2003)", "format_in_all_cases": "cell-based", "key": {"[1]": {"system": "pathogen reduced platelets", "assay": "Lactate production by pathogen reduced platelets over five day storage", "conditions": "10 mM 2-deoxy-D-glucose; five days in storage; riboflavin, 7 J/cm^2 320 nm light; vs platelets without 2-deoxy-D-glucose (FIG. 1)", "from_the_text": "(§1) The following figures graph the quality of pathogen reduced platelets over a five day storage period. Platelets were separated from whole blood and collected using a blood collection device such as the COBE Spectra™ or TRIMA® apheresis systems available from Gambro BCT Inc., Lakewood, Colo., USA. However, it should be noted that any device known in the art for separating blood into components may be used to collect platelets without departing from the spirit and scope of the present invention.\n(§2) Collected platelets were suspended in a volume of 278 mL of fluid containing […] riboflavin and either with or without a glycolytic inhibitor. 2-deoxy-D-glucose is one example of a glycolytic inhibitor which may be used in the present invention. The platelets were irradiated in a Sengewald bag (available from Sengewald Verpackungen GmbH & Co. KG) (however any bag known in the art may be used) at 7 J/cm^2 with a 320 nm broad band eximer light."}, "[2]": {"system": "pathogen reduced platelets", "assay": "Glucose consumption of pathogen reduced platelets over time", "conditions": "10 mM 2-deoxy-D-glucose; riboflavin, 7 J/cm^2 320 nm light; vs platelets containing no 2-deoxy-D-glucose (FIG. 2)", "from_the_text": "as §1, §2"}, "[3]": {"system": "pathogen reduced platelets", "assay": "pH over time of a solution of pathogen reduced platelets", "conditions": "10 mM 2-deoxy-D-glucose; five day storage; platelets without it show rapid drop in pH (FIG. 3)", "from_the_text": "as §1, §2\nAs shown, 10 mM 2-deoxy-D-glucose appears to maintain the pH of the platelets at approximately pH 7.40. Platelets without 2-deoxy-D-glucose experience a rapid drop in pH. Such results are expected because lactic acid is not produced at high rates if the glycolysis pathway is inhibited, and consequently, the pH of the solution remains at a relatively constant level."}, "[4]": {"system": "pathogen treated platelets", "assay": "GMP-140 expression on the surface of pathogen treated platelets (platelet activation) over five day storage", "conditions": "solutions containing 2-deoxy-D-glucose, vs solutions without glycolytic inhibitors (FIG. 4)", "from_the_text": "as §1, §2\nFIG. 4 is a graph showing GMP-140 expression on the surface of pathogen treated platelets over a five day storage period. GMP-140 is a marker which appears on the surface of platelets which are activated. When transfused into a recipient, platelets which are activated during storage have a higher percentage of being quickly removed from the recipient's circulatory system than non-activated platelets."}}}
{"compound": "O=CC[C@@H](O)[C@H](O)[C@H](O)CO", "note": "[2-deoxy-D-glucose]", "values": [{"measurement": "production of lactic acid", "setting": "[1]", "result": "marked decrease"}, {"measurement": "glucose consumption", "setting": "[2]", "result": "slower rate"}, {"measurement": "pH of the platelets maintained during storage", "setting": "[3]", "result": "~7.40"}, {"measurement": "percentage of GMP-140 expression", "setting": "[4]", "result": "lower percentage"}]}
